Assay results: paper PMC8533089, “Characteristics of Neurokinin-3 Receptor and Its Binding Sites by Mutational Analysis” (Biology, 2021)
“Also recorded” adds a separate entry of the source. Where two headings read alike, the source gives them in different places.

Key:
[1] = system: plasma GH and gonadotropins; assay: 14-day in vivo experiment: plasma GH and gonadotropins (ELISA); set-up: species or system adult male tilapia (Oreochromis niloticus); settings: 500 µg/kg BW IP every 48 h, 14 days, versus control
Method: (§1) The levels of FSH, LH and GH in the plasma were measured by specific competitive enzyme-linked immunosorbent assay (ELISA), developed for tilapia, based on recombinant gonadotropins or GH that were created by using the yeast Pichia pastoris. For the ELISAs, we used primary antibody antisera against GH [51], FSHβ [52], or against rtLHβ [53], and rtFSHβα [52], rtLHβ [53] or tiGH for the standard curves. Sensitivity for the plasma measurements were 15.84 pg/mL for LH, 0.24 pg/mL for FSH and 30.0 pg/mL for GH. The inter-assay coefficient of variation (CV) was 14.8, 12.5, and 13.0%, while intra-assay CV was 7.2, 8.0, and 8.0% for LH, FSH and GH, respectively.
(§2) Adult male tilapia (BW 87.29 ± 26.1 g; gonado-somatic index (GSI 0.21% ± 0.36%) were IP injected with SB-222200 (500 µg/kg BW in 25% DMSO) and saline with 25% DMSO as a control every 48 h during a 14-day period. Blood was sampled every 48 h. Milt volume was collected from 6 fish from each group 7 and 14 days after the first injection, generally according to [55].

11-KT plasma levels = assay: 14-day in vivo experiment: plasma 11-KT (ELISA); set-up: species or system adult male tilapia (Oreochromis niloticus); settings: 500 µg/kg BW IP every 48 h, 14 days; n = 6
Method: as §2
11-KT levels were determined by ELISA, according to [52], using acetylcholine-esterase as a label. The anti- 11-KT was donated by Dr. D.E. Kime (Sheffield, UK). All samples were analyzed in duplicate, and for each ELISA plate, a separate standard curve was run. The lower limits of detection were 0.93 for 11-KT. The intra- and inter-assay coefficients of variance were less than 7%. Steroid levels in the plasma, determined by ELISA, were validated by verifying that serial dilutions were parallel to the standard curve.

tiTac3Ra = tiTac3Ra (Oreochromis niloticus, UniProt A0A075QPN8); assay: CRE-Luc antagonist assay, wild-type receptor, COS-7; type: cell-based, tilapia (Oreochromis niloticus); settings: for IC50: antagonist 0.001–1000 μM added 10 min before peptide
Method: In order to study the signaling pathways of the mutant tiTac3Ra, the entire coding regions of tiTac3Ra (GenBank accession no. KF471674), and both of the mutant receptors were inserted into pcDNA3.1 (Invitrogen, Massachusetts, United States). We used a sensitive luciferase (LUC) reporter gene assay. […] Transient transfection, cell procedures and stimulation protocols followed the procedures previously described. Briefly, 3 μg of each construct, together with 3 μg of a luciferase reporter plasmid were transiently transfected into COS-7 cells (American Type Culture Collection, Manassas, VA, USA). Forty-eight hours after transfection, cells transfected with Tac3Ra plasmid fused with GFP were applied with an Hoechst dye (Invitrogen, Massachusetts, United States; diluted 1:1000) in order to mark nuclei in the culture for transfection analysis.
Non-peptide molecules, SB-222200 (Sigma, Merck, Darmstadt, Germany) and Osanetant (Axon Medchem, Reston, VA, USA), known to antagonize mammalian NK3R [49] were studied for their ability to antagonize tiTac3Ra, which was activated with a fixed dose of the native ligands (10 nM tiNKB or tiNKF), combined with increasing doses of the antagonists (0.001–1000 μM). The antagonists were added 10 min prior to the addition of the peptides. IC50 values were calculated from concentration response curves by means of computerized nonlinear curve-fitting with Prism version 9 software (GraphPad, San Diego, CA, USA). All experiments were repeated at least 3 times using cells from independent transfections, each performed in triplicate.
NKB antagonists, SB-222200 (Figure 7A) and Osanetant (Figure 7B) were added in increasing concentrations (0.001–1000 μM) to transfected COS-7 that expressed tiTac3Ra. Ten minutes after the induction of the antagonists, the ligand, tiNKB or tiNKF (10 nM) was added to the media.

[2] = system: Tac3R of the striped bass; set-up: method as in PMID 28330973; settings: cited from earlier work
Source text: The effect of NKB/NKF peptides on gonadotropin secretion in fish is already well established. The first indication that NKB is widely expressed in fish species and has a stimulatory reproductive effect was shown in zebrafish, goldfish, and tilapia. […] Osetanant re ...

LH plasma levels = assay: In vivo effect of NKB antagonists on LH plasma levels (ELISA); set-up: species or system adult male tilapia (Oreochromis niloticus)
Method: as §1
(§3) Adult male tilapia (BW 89.29 ± 32.93 g; gonado-somatic index (GSI) 0.24% ± 0.40%) were injected IP (intraperitoneal) with NKB antagonists, SB-222200 or Osanetant (100 µg/kg BW), and after 0.5 h, a second injection of sGnRHa (10 µg/kg BW) was added. Control groups were injected with sGnRHa ([DAla^6, Pro^9-Net]-mammalian GnRH; Bachem, Budendorf, Switzerland) 10 µg/kg BW) as a positive control. The fish were bled from the caudal blood vessels into heparinized syringes 0, 0.5, 2, 6 and 24 h after injection. This time course is according to standard protocols used previously to test the effect of GnRH on circulating levels of LH, FSH, and GH in tilapia. Blood samples were collected from the caudal vasculature and centrifuged (3200 rpm for 30 min at 4 °C) (Centrifuge: Fresco 17, Rotor: 75003424, Thermo Scientific™, Langenselbold Germany) to obtain plasma samples, which were stored at −20 °C until assayed. Three independent experiments were carried out for the in-vivo studies.

FSH plasma levels = assay: In vivo effect of NKB antagonists on FSH plasma levels (ELISA); set-up: species or system adult male tilapia (Oreochromis niloticus); settings: antagonist 100 µg/kg BW IP, sGnRHa 10 µg/kg BW after 0.5 h; n = 10
Method: as §1
as §3, with “Blood samples were collected from the caudal vasculature and centrifuged (3200 rpm for 30 min at 4 °C) (Centrifuge: Fresco 17, Rotor: 75003424, Thermo Scientific™, Langenselbold Germany) to obtain plasma samples, which were stored at −20 °C until assayed. Three independent experiments were carried out for the in-vivo studies.” left out

tiTac3Ra, sequence (A0A075QPN8 entry or part of it): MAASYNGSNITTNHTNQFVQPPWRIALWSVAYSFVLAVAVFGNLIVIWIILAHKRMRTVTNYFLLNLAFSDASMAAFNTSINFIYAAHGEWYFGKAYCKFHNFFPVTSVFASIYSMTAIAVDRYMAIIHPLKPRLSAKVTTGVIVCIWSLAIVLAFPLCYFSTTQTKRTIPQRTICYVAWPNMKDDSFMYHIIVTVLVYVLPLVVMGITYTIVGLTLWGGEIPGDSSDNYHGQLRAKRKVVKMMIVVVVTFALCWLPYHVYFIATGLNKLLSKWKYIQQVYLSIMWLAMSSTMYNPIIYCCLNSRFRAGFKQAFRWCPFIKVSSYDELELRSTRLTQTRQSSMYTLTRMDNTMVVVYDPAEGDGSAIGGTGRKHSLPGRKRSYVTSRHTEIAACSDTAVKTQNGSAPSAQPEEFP

CC[C@H](NC(=O)c1c(C)c(-c2ccccc2)nc2ccccc12)c1ccccc1 [SB-222200]
Plasma GH and gonadotropins [1]: did not change significantly | 11-KT plasma levels (11-KT plasma levels): significantly delayed the rise of 11-KT levels in plasma | IC50 (tiTac3Ra; 10 nM tiNKB, COS-7, CRE-Luc, read-out: IC50 versus tiNKB): 84.1 µM | IC50 (tiTac3Ra; 10 nM tiNKF, COS-7, CRE-Luc, read-out: IC50 versus tiNKF): 37.1 µM | Emax (tiTac3Ra; COS-7, CRE-Luc, 10 nM tiNKB or tiNKF, read-out: luciferase activity reduced to % of maximal response): 50% | maximum response rate compared with Osanetant (tiTac3Ra; Figure 7C,D): higher maximum response rate than Osanetant | inhibitory effect on Tac3Ra activation (tiTac3Ra; in words): strong inhibitory effect | reduction of receptor activity (in words) (tiTac3Ra; restated in Discussion): reduced the receptor activity by half | antagonistic effect on the Tac3R of the striped bass [2]: no antagonistic effect | LH plasma levels (LH plasma levels; 100 µg/kg BW IP, 2 h after injection, versus sGnRHa, n = 10): significantly lower | LH levels in plasma, sole IP injection (LH plasma levels; Discussion): decrease in the LH levels in plasma | LH release, combination with sGnRHa (LH plasma levels; antagonist 100 µg/kg BW IP, then sGnRHa 10 µg/kg BW after 0.5 h, n = 10): inhibitory effect on LH release, without any significant change when compared to the sGnRHa; also recorded: drop in LH release | LH plasma levels (abstract) (LH plasma levels; two hours post intraperitoneal injection): decreased LH plasma levels | FSH levels, 2 h post injection, combination with sGnRHa (FSH plasma levels): increased FSH levels
